# Source: EP3389640B1, “PHARMACEUTICAL COMPOSITION COMPRISING ANHYDROUS DASATINIB” (Synthon B.V., priority 2015, dated 2017)
# Where two headings read alike, the source gives them in different places.
# How the values were obtained:
# Format in all cases: physicochemical
# [1] = form conversion during wet granulation in water; details: during the process of granulation in water
# Method: The wet granulation process is performed with a granulation solvent selected from the group consisting of water, acetone, ethanol, isopropanol or a mixture thereof.
# [2] = solubility at different pH values
# From the text: Table 1 gives an overview of the solubility of anhydrous dasatinib ("N-6") and dasatinib monohydrate ("H1-7") at different pH values. Table 1: solubility of anhydrous dasatinib ("N-6") and dasatinib monohydrate ("H1-7")
# [3] = stability of tablets stored at 40°C/75% RH (assay and impurities); details: triacetin used as plasticizer in the coating formulation
# From the text: The intragranular components were blended with water in a high shear mixer. The resulting granulate was dried in a fluid bed dryer. The granulate was sieved through an appropriate mesh size sieve. Microcrystalline cellulose and croscarmellose sodium were sieved through a suitable mesh size sieve for deagglomeration. The excipients were mixed with the sieved granulate in a diffusion mixer. Magnesium stearate was sieved through an appropriate sieve to deagglomerate and mixed with the powder mix in a diffusion mixer. The homogeneous powder obtained, was compressed using a rotating tablet press using appropriate punches. Part of the tablets were coated with a water suspension of Opadry® II White 31K28459 coating until 3% weight gain (= […]). The tablets were packed in suitable packaging material and were stored at 40°C/75% RH.
# Hydroxypropyl cellulose was dissolved in water and blended with the other intragranular components in a high shear mixer. The resulting granulate was dried in a fluid bed dryer. The granulate was sieved through an appropriate mesh size sieve. Microcrystalline cellulose and croscarmellose sodium were sieved through a suitable mesh size sieve for deagglomeration. The excipients were mixed with the sieved granulate in a tumbling mixer. […]
Compound,conversion into dasatinib monohydrate [1],solubility ([2]; pH 1.2),"solubility ([2]; pH 1.2, listed as anhydrous form ""N-6"")","solubility ([2]; pH 4.5, aqueous buffer, pH 4.5, read-out: solubility)",solubility ([2]; pH 6.8),reaction with the organic ester triacetin [3],"solubility ([2]; pH 1.2, listed as dasatinib monohydrate ""H1-7"")",solubility ([2]; pH 4.5)
"Cc1nc(Nc2ncc(C(=O)Nc3c(C)cccc3Cl)s2)cc(N2CCN(CCO)CC2)n1 [Anhydrous dasatinib (""N-6""), N-(2-chloro-6-methylphenyl)-2-[[6-[4-(2-hydroxyethyl)-1-piperazinyl]-2-methyl-4-pyrimidinyl]amino]-5-thiazolecarboxamide]",does not convert into dasatinib monohydrate,34510 µg/mL,34510 µg/mL,179 µg/mL,1.8 µg/mL,does not react,–,–
"Cc1nc(Nc2ncc(C(=O)Nc3c(C)cccc3Cl)s2)cc(N2CCN(CCO)CC2)n1 [Dasatinib monohydrate (""H1-7""), N-(2-chloro-6-methylphenyl)-2-[[6-[4-(2-hydroxyethyl)-1-piperazinyl]-2-methyl-4-pyrimidinyl]amino]-5-thiazolecarboxamide]",–,2850 µg/mL,–,–,0.6 µg/mL,–,2850 µg/mL,134 µg/mL
